From ChEMBL document CHEMBL4699540, “Discovery and structure activity relationships of 7-benzyl triazolopyridines as stable, selective, and reversible inhibitors of myeloperoxidase” (Bioorg Med Chem, 2020)

How the values were obtained:
Myeloperoxidase [1] = biological target: T1, Myeloperoxidase (Mus musculus, UniProt P11247); experiment: Inhibition of PMA-induced MPO in mouse Neutrophil incubated for 3 mins by luminometry; type: tissue-based
T1 sequence (P11247 whole entry): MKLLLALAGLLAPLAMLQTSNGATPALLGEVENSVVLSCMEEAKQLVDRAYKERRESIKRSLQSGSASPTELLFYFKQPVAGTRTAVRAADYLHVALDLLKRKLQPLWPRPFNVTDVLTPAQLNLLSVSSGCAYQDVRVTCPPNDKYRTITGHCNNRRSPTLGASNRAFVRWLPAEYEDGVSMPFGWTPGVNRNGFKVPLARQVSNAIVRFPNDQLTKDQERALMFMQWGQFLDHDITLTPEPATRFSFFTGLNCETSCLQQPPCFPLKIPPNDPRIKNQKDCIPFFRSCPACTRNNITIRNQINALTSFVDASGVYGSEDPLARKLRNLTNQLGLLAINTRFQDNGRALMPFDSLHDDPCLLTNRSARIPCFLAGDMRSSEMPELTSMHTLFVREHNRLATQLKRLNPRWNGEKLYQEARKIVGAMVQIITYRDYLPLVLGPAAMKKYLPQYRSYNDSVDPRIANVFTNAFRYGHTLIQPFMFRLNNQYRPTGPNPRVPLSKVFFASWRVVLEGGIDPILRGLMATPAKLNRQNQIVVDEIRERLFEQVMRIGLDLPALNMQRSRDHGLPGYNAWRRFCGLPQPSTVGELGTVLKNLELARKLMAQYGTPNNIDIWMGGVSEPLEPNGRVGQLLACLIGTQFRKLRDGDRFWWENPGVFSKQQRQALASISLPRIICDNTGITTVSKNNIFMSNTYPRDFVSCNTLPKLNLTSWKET

Cytochrome P450 2B6 = biological target: T2, Cytochrome P450 2B6 (Homo sapiens, UniProt P20813); experiment: Inhibition of CYP2B6 (unknown origin); type: ADME
T2 sequence (P20813 whole entry): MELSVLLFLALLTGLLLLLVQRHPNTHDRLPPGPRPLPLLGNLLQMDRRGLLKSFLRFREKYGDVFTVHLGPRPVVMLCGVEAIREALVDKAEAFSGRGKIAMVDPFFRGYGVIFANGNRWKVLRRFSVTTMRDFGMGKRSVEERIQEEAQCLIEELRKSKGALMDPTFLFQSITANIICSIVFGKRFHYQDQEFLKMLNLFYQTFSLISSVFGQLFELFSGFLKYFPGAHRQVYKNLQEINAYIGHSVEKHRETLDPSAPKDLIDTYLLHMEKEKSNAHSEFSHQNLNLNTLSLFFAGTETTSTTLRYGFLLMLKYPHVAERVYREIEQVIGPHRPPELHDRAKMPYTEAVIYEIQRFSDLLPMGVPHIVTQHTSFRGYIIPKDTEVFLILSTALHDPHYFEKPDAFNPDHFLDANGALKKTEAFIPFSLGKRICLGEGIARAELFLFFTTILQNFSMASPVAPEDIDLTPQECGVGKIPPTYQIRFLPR

Cytochrome P450 2D6 = Cytochrome P450 2D6 (Homo sapiens, UniProt P10635); experiment: Inhibition of CYP2D6 (unknown origin); type: ADME
Sequence of Cytochrome P450 2D6 (P10635 whole entry): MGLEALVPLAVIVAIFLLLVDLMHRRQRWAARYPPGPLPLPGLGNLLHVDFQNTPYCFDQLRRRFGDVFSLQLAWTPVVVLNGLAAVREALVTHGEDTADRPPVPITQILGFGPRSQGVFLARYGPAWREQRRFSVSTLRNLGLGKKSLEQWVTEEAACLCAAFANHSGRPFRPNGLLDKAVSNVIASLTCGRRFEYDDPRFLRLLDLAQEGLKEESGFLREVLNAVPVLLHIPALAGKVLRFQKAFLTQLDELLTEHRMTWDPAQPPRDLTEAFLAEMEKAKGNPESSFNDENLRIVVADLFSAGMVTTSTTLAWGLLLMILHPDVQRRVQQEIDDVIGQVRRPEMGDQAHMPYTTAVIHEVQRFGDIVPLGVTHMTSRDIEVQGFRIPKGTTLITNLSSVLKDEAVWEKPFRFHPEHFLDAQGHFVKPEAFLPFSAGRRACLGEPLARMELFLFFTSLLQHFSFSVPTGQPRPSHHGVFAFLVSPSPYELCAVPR

[2] = Dissociation constant, pKa of the compound; type: physicochemical
[3] = Metabolic stability in mouse liver microsomes assessed as compound remaining; type: ADME, Microsome
[4] = Metabolic stability in human liver microsomes assessed as compound remaining; type: ADME, Microsome
[5] = Permeability of compound at pH 7.4 by PAMPA assay; type: ADME; conditions: read-out: permeability
Cytochrome P450 2C8 = biological target: T3, Cytochrome P450 2C8 (Homo sapiens, UniProt P10632); experiment: Inhibition of CYP2C8 (unknown origin); type: ADME
T3 sequence (P10632 whole entry): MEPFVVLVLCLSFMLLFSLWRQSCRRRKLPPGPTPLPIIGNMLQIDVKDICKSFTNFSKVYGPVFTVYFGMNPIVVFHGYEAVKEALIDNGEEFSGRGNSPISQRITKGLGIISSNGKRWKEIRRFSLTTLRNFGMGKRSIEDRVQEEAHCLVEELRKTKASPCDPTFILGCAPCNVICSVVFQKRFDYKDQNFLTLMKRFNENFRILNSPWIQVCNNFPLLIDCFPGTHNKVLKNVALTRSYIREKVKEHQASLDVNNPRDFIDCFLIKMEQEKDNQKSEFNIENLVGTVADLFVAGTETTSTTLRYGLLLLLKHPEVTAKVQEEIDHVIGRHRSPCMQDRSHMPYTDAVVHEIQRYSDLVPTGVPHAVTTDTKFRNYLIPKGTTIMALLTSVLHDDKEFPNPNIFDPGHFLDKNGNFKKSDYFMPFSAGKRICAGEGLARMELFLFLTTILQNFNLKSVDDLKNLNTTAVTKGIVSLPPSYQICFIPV

Cytochrome P450 1A2 = biological target: T4, Cytochrome P450 1A2 (Homo sapiens, UniProt P05177); experiment: Inhibition of CYP1A2 (unknown origin); type: ADME
T4 sequence (P05177 whole entry): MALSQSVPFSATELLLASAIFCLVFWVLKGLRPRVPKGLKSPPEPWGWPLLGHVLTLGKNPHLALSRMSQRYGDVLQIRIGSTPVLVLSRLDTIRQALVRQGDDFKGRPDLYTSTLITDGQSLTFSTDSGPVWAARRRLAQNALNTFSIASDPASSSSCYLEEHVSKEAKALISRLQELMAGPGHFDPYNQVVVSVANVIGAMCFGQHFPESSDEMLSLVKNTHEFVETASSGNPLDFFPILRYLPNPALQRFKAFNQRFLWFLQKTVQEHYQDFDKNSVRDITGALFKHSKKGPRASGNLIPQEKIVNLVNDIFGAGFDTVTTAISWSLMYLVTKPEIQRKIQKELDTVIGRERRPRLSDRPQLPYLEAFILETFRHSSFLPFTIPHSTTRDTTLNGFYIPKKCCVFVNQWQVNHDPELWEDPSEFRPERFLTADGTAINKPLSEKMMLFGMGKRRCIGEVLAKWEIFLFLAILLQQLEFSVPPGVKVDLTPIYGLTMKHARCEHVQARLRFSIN

[6] = Metabolic stability in rat liver microsomes assessed as compound remaining; type: ADME, Microsome
[7] = Permeability of compound at pH 5.5 by PAMPA assay; type: ADME; conditions: read-out: permeability
[8] = Half life in CD-1 mouse at 3 mg/kg, po by LC/MS analysis; type: ADME, organism-based; conditions: in vivo
Cytochrome P450 3A4 = Cytochrome P450 3A4 (Homo sapiens, UniProt P08684); experiment: Inhibition of CYP3A4 (unknown origin); type: ADME
Sequence of Cytochrome P450 3A4 (P08684 whole entry): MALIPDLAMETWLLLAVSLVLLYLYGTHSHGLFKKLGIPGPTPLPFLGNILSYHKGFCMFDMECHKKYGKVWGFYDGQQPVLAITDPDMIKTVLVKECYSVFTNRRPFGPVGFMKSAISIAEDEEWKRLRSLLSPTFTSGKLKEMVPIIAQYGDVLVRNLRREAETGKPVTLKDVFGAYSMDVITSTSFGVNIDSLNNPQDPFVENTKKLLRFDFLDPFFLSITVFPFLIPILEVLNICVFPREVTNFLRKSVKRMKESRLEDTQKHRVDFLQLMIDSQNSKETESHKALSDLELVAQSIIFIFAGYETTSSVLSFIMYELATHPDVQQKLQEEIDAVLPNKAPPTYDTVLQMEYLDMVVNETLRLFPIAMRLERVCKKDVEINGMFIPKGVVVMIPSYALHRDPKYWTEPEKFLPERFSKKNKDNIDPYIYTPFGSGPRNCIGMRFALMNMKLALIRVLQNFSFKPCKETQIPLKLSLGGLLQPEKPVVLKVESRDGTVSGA

[9] = biological target: T5, Methylated-DNA--protein-cysteine methyltransferase (Homo sapiens, UniProt P16455); experiment: Inhibition of human MGMT using 06-benzylguanine as substrate incubated for 30 mins by LC/MS analysis; conditions: 0.5 h
T5 sequence (P16455 whole entry): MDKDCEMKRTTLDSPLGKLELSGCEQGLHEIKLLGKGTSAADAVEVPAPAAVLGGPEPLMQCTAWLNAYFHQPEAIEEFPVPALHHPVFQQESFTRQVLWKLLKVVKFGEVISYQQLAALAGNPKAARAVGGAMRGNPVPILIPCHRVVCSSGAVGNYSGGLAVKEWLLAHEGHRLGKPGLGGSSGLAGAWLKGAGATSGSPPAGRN

[10] = AUCtot in CD-1 mouse at 3 mg/kg, po by LC/MS analysis; type: ADME, organism-based; design: time AUCmax, route oral, dose 3 mg/kg; conditions: in vivo
Myeloperoxidase [11] = biological target: T6, Myeloperoxidase (Homo sapiens, UniProt P05164); experiment: Inhibition of recombinant human MPO incubated for 10 mins by amplex red dye based assay
T6 sequence (P05164 whole entry): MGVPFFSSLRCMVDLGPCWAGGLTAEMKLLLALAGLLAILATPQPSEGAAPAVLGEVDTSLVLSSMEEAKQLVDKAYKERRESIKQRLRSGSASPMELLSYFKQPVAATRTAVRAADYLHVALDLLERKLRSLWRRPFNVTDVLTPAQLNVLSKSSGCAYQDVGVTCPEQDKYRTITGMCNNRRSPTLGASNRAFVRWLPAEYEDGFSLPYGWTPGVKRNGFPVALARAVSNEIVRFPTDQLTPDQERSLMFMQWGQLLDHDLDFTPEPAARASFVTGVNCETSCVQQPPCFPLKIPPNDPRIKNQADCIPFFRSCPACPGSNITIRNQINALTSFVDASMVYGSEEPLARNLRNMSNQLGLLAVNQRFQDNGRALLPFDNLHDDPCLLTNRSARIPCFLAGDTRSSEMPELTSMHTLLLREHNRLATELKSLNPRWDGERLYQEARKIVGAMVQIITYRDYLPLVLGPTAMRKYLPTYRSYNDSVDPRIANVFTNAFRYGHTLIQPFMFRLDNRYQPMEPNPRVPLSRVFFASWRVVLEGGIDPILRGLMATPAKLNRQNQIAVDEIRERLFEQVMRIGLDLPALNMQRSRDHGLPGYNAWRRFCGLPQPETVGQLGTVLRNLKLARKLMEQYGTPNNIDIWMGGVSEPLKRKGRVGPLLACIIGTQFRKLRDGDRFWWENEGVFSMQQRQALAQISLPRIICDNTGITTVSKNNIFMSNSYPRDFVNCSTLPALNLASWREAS

[12] = Binding affinity to human neutrophil MPO delta (1-95) measured for 5 mins by SPR assay
Neutrophil = conditions: Homo sapiens, time 5.0 min

IC50 (Myeloperoxidase [1]) | IC50 (Cytochrome P450 2B6) | IC50 (Cytochrome P450 2D6) | pKa [2] | Stabilty [3] | Stabilty [4] | Papp [5] | IC50 (Cytochrome P450 2C8) | IC50 (Cytochrome P450 1A2) | Stabilty [6] | Papp [7] | half-life [8] | IC50 (Cytochrome P450 3A4) | inhibition (INH) [9] | AUC [10] | IC50 (Myeloperoxidase [11]) | SMILES | Kd [12] | Ka (Neutrophil) | Kdiss (Neutrophil)
32.5 µM | – | – | – | – | – | – | – | – | – | – | – | – | – | – | – | O=c1[nH]c(=S)n(C[C@H]2CCCO2)c2nc[nH]c12 | – | – | –
– | > 10 µM | > 10 µM | 6.6 | 80% | 93% | 16.7 ×10⁻⁶ cm/s | > 10 µM | > 10 µM | 95% | 42 ×10⁻⁶ cm/s | 2.4 h | > 10 µM | Active | 22.2 µM·h | 0.103 µM | Nc1nc(OCc2ccccc2)c2[nH]nnc2n1 | 0.547 µM | 1.3 10^3/M.s | 0.72 10^-3/s
